≈ marks a conversion by molar mass, not a printed value. Where “and” joins values, the source holds several entries; their conditions need not be identical. Identical values can stand only once.
How the values were obtained:
[1] = test system: murine lymphocytes (sheep red blood cells as antigen); experiment: Antigen-specific adjuvanticity: direct anti-SRBC plaque forming cells, murine system; format: cell-based, mouse; details: for Peak Direct anti-SRBC PFC/Culture: murine system, at peak concentration; for Average 1 Log Plaque Values: Table 9, murine, * = single study
Description: ^1 Adjuvanticities against sheep red blood cells [SRBC] measured in
direct plaqueforming cells per culture of lymphocytes from the mouse
strains shown. Details of the procedure are provided in the Materials and
Methods Section. Standard errors from the enumerated mean values are show
A large number of comparisons of adjuvanticity using human and murine lymphocytes as the source of leukocytes have been carried out using compounds of the present invention, as well as with new compounds excluded from the present invention. […] Interstudy comparisons are however useful for showing trends and large differences. Tables 5, 6 and 7, hereinafter, provide exemplary data from such studies in which only the activity at the peak concentration is shown for each compound and the results for the controls are omitted.
Lymphocyte cultures. The serum-containing culture medium water prepared to contain the following per 100 milliliters: 91.9 milliliters RPMI 1640 (Flow Laboratories, Inc., Rockville, Md.), 0.1 milliliters of 100×glutamine, 1.0 milliliter of 100×sodium pyruvate, 1 0 milliliter of 50×nonessential amino acids, 1.0 milliliter of water containing 10^4 units of penicillin G and 10^4 micrograms of streptomycin, and 5.0 milliliters of a supportive lot of fetal calf serum (FCS). These ingredients were admixed to apparent homogeneity. Spleen cell suspensions and populations enriched for splenic B cells were prepared as described in Goodman et al., J. Immunol., 121:1905 (1978).
For evaluation of the primary humoral immune response to sheep erythrocytes (SRBC), 5×10^6 to 10^7 murine spleen cells were cultured in 1.0 milliliter of 5% FCS-containing medium for 4 or 5 days in the presence and absence of immunogen. Cells were incubated in culture trays (Costar, Cambridge, Mass.) at 37° C. in a humidified atmosphere of 10% CO2 in air using tissue culture boxes (CBS Scientific, Del Mar, Calif.) that were rocked at a frequency of 7 cycles per minute. Pooled SRBC are available from the Colorado Serum Co., Denver Colo.
(§1) Assay of plaque forming cells (PFC). PFC secreting antibodies against SRBC were evaluated after 4 or 5 days of culture using a modification of the hemolytic plaque assay of Jerne and Nordin, Science, 140:405 (1963). The cells were brought up in complete medium before plaquing; they were plaqued in standard low Mr agarose (Bio-Rad Laboratories, Richmond Calif.), and were incubated in SRBC-absorbed guinea pig complement for one hour after a 1.5 hour incubation without complement.

physchem = format: physicochemical, human; details: human, urine
Description: Solubilities in urine could be expected to be lower than those for water due to the relatively higher salt content in urine than is found in water.
Each sample was filtered through a 5 micron pore-sized filter, diluted as necessary with the HPLC mobile phase, and then quantified by HPLC.

[2] = test system: human peripheral blood lymphocytes (sheep red blood cells as antigen); experiment: Antigen-specific adjuvanticity: direct anti-SRBC plaque forming cells, human system; format: cell-based; details: for Average 1 Log Plaque Values: Table 9, human, * = single study
Experimental: ^1 Studies were carried in a manner similar to those of Table 1,
except that a human lymphocyte preparation was used.
The results shown in Table 7, below, were obtained similarly to those discussed above, but using human lymphocytes. Some of those studies utilized lymphocytes from more than one individual, and are therefore reported with multiple entries.
Human peripheral blood lymphocytes (PBL) were prepared from normal heparinized venous blood by Ficoll-diatrizoate density gradient centrifugation. PBL were depleted of suppressor T cells bearing the histamine type 2 receptor by adhering them to the surfaces of histamine-rabbit serum albumin-coated plastic petri dishes (Cell-ect No. 2 kit; Seragen, Boston, Mass.) and by recovering the nonadherent cells by panning as described by Wysocki and Sato, Proc. Natl. Acad. Sci. USA, 75:2844 (1978) and modified by Cavagnaro and Osband, Biotechniques, January/February:30 (1983).
The tissue culture medium employed in these studies for human lymphocytes was prepared as follows: One hundred milliliters (ml) contained 87.9 ml RPMI 1640 (Flow Laboratories, Rockville, Md.), 0.1 ml 100×glutamine,1.0 ml of 1.0 M HEPES buffer (Microbilogical Associates, Betheseda, Md.), 1.0 ml of water containing 10^4 U of penicillin G and 10^4 micrograms of streptomycin, and 10 ml of fresh autologous heat-inactivatedplasma. For evaluation of the primary humoral immune response to SRBC, lymphoid cells prepared as above were cultured at a density of 2×10^6 /ml in a volume of 1.0 ml containing 5×10^6 SRBC as antigen (Colorado Serum Co., Denver, Colo.) together with IL-2 (a partially purified preparation of human IL-2 that was free of interferon-gamma activity was obtained from Electro-Nucleonics, Inc., Silver Spring, Md.) and the guanine nucleoside derivative.
as §1

murine spleen cells = experiment: Mitogenicity: [3H]TdR uptake, murine system; format: cell-based, mouse; details: Table 4
Description: ^1 Mitogenicity measured by the uptake of [^3 H]TdR
(tritiumlabeled thymidine deoxyribonucleoside) as determined by measuring
counts per minute (cpm) per cell culture using the conditions discussed i
the Materials and Methods Section.

lymphocytes = details: cited from earlier work
[3] = test system: SJL splenocytes (irradiated CBA/CaJ splenocyte stimulators); experiment: T cell proliferation in mixed leukocyte cultures, SJL splenocytes; format: cell-based, mouse; details: responder +, stimulator +, 10^-3 M
Description: In evaluating the effect of a guanosine derivative on alloantigen-induced proliferation, it is imperative to minimize the simultaneous mitogenic response of B cells to contact with a guanosine derivative. Spleen cells from SJL mice (whose B cells are hyporesponsive to the mitogenic effect of a guanosine derivative, but not to its adjuvant activity) were used as responder cells in two studies. Those responder cells were stimulated with irradiated allogenic cells (from CBA/CaJ mice) in the presence of no added nucleoside, incremental amounts of a guanosine derivative of the invention, 7M8oGuo, or with another guanosine derivative, 8MGuo, used as a positive control.
(§2) ^1 Plus signs (+) are utilized to indicate the presence of the
material of the column heading in the culture medium, whereas minus signs
(-) are utilized to show absence of such a material from the culture
(§3) ^3 Allogeneic cells used to costimulate proliferation, after exposure
(§4) T Helper Cell Activation. 1.5×10^5 viable spleen cells from SJL mice or CBA/CaJ mouse thymocytes were cultured with or without an equal number of irradiated (2500 rads) spleen cells from CBA/CaJ or BDFl mice respectively, in 0.2 ml of culture medium in the presence of incremental concentrations of the exemplary 7,8-disubstituted guanine derivatives. The lymphocyte culture medium utilized was that described before, and was further supplemented with 2-mercaptoethanol to a final concentration of 50 uM. Thymocyte cultures also contained 10 percent (v/v) of a concanavalin A-conditioned rat spleen cell medium sold under the name Rat T Cell Monoclone by Collaborative Research. Following 90 hours of culture, one microCurie [^3 H]TdR per culture was admixed, and the resulting culture was maintained for a further six hour time period.
(§5) The cultures were harvested with a Brandel cell harvester (M24V, Biological Research and Development Laboratories, Rockville, Md.) onto glass fiber filter disks. Filter disks were transferred to plastic scintillation vials, covered with liquid scintillation cocktail, and counted in a Beckman LS5700 liquid scintillation counter.

[4] = test system: CBA/CaJ thymocytes (irradiated BDF1 splenocyte stimulators); experiment: T cell proliferation in mixed leukocyte cultures, CBA/CaJ thymocytes; format: cell-based, mouse; details: Study 3, responder +, stimulator +
Description: A third and fourth study utilized thymocytes from CBA/CaJ mice as the stimulated (responder) cells, and irradiated BDFl mouse spleen cells as the stimulator cells. Two guanosine derivatives of the present invention, 7a8MGuo and 7a8oGuo, were used for these studies, with 8MGuo serving as positive control for one of the studies.
However, in the presence of interleukin-2 (IL-2), those cells develop responsiveness to allogeneic stimulation. The present studies utilizing thymocytes were therefore carried out in the presence of a co-stimulating amount of IL-2.
as §2, §3, §4, §5

Structure (SMILES): Cn1c(=O)n([C@@H]2O[C@H](CO)[C@@H](O)[C@H]2O)c2nc(N)[nH]c(=O)c21 [7m8oGuo, 7-methyl-8-oxoguanosine, reference compound]
- Peak Direct anti-SRBC PFC/Culture ([1]; Table 5): 723 ± 143 PFC/Culture
- Direct Anti-SRBC PFC/Culture ([1]; Table 8, 1 × 10^-5 M): 145 PFC/Culture
- Average 1 Log Plaque Values [1]: 22,359 ± 5154 per micromole
- solubility at 18 h (physchem): 4880 µg/mL (≈ 15.6 mM)
- Peak Direct anti-SRBC PFC/Culture ([2]; Table 7, first group, person a): 1250 ± 125 PFC/Culture
- Peak Direct anti-SRBC PFC/Culture ([2]; Table 7, first group, person b): 830 ± 67 PFC/Culture
- Peak Direct anti-SRBC PFC/Culture ([2]; Table 7, first group, person c): 1225 ± 175 PFC/Culture
- Peak Direct anti-SRBC PFC/Culture ([2]; Table 7, second group, person a): 528 PFC/Culture
- Peak Direct anti-SRBC PFC/Culture ([2]; Table 7, second group, person b): 297 PFC/Culture
- Peak Direct anti-SRBC PFC/Culture ([2]; Table 7, second group, person c): 263 PFC/Culture
- Average 1 Log Plaque Values [2]: 867 ± 217 per micromole
- [3H] TdR Uptake (murine spleen cells; 3 × 10^-4 M): 39,620 ± 1160 cpm/culture
- [3H] TdR Uptake (murine spleen cells; 10^-3 M): 35,070 ± 1830 cpm/culture
- [3H] TdR Uptake (murine spleen cells; 10^-4 M): 23,640 ± 770 cpm/culture

Structure (SMILES): Nc1nc2c(nc(Br)n2[C@@H]2O[C@@H]3COP(=O)(O)O[C@H]3[C@H]2O)c(=O)[nH]1 [8-BrcGMP, 8-Bromoguanosine-3',5'-cyclic monophosphate]
- lymphocyte mitogenicity, in words (lymphocytes): weak synthetic intracellular lymphocyte mitogen

Structure (SMILES): Nc1nc2c(nc(S)n2[C@@H]2O[C@H](CO)[C@@H](O)[C@H]2O)c(=O)[nH]1 [8MGuo, 8-mercaptoguanosine, reference compound]
- [3H] TdR Uptake ([3]; Study 1): 28,100 ± 2700 counts per minute
- [3H] TdR Uptake ([3]; Study 2): 30,800 ± 1300 counts per minute
- [3H] TdR Uptake ([4]; 10^-4 M): 13,800 ± 1000 counts per minute
- [3H] TdR Uptake ([4]; 10^-5 M): 15,600 ± 1000 counts per minute
- Direct Anti-SRBC PFC/Culture ([1]; Table 1, C57BL/6J, 3 × 10^-4 M): 11,000 ± 140 PFC/Culture
- Direct Anti-SRBC PFC/Culture ([1]; Table 1, CBA/CaJ, 3 × 10^-4 M): 527 ± 25 PFC/Culture and 782 ± 123 PFC/Culture
- Direct Anti-SRBC PFC/Culture ([1]; Table 1, CBA/CaJ, 10^-4 M): 813 ± 129 PFC/Culture
- Peak Direct anti-SRBC PFC/Culture ([1]; Table 6): 527 ± 25 PFC/Culture

Structure (SMILES): CCn1c(=O)n([C@@H]2O[C@H](CO)[C@@H](O)[C@H]2O)c2nc(N)[nH]c(=O)c21 [compound 23643, 7-Ethyl-8-oxoguanosine]
- Direct Anti-SRBC PFC/Culture ([1]; Table 8, 1 × 10^-5 M): 270 PFC/Culture
- peak concentration lower than comparison compound ([1]; murine system (Table 5), vs 8-BrGuo): 1.5 log units
- Peak Direct anti-SRBC PFC/Culture ([2]; Table 7, later studies, single preparation): 9045 ± 310 PFC/Culture
- [3H] TdR Uptake (murine spleen cells; 3 × 10^-4 M): 48,690 ± 1120 cpm/culture
- [3H] TdR Uptake (murine spleen cells; 10^-3 M): 34,160 ± 780 cpm/culture
- [3H] TdR Uptake (murine spleen cells; 10^-4 M): 37,490 ± 540 cpm/culture

Structure (SMILES): CCCCn1c(=O)n([C@@H]2O[C@H](CO)[C@@H](O)[C@H]2O)c2nc(N)[nH]c(=O)c21 [compound 23644, 7-Butyl-8-oxoguanosine]
- Peak Direct anti-SRBC PFC/Culture ([1]; Table 5): 1058 ± 154 PFC/Culture
- Direct Anti-SRBC PFC/Culture ([1]; Table 8, 1 × 10^-5 M): 900 PFC/Culture
- Average 1 Log Plaque Values [1]: 118,886 ± 80,092 per micromole
- Average 1 Log Plaque Values [2]: 52,397 per micromole
- peak adjuvanticity values greater as compared to 7m8oGuo ([2]; human system (Table 3)): about 100%
- [3H] TdR Uptake (murine spleen cells; 3 × 10^-4 M): 41,180 ± 410 cpm/culture
- [3H] TdR Uptake (murine spleen cells; 10^-3 M): 33,220 ± 1330 cpm/culture
- [3H] TdR Uptake (murine spleen cells; 10^-4 M): 30,720 ± 1030 cpm/culture

From patent US5011828A, “Immunostimulating guanine derivatives, compositions and methods” (priority 1988, dated 1991)
